Laboratory results as given in patent US20250332141A1, “A PHARMACEUTICAL COMPOSITION COMPRISING AN INHIBITOR OF GLUTAMINE SYNTHETASE ENZYME TO COMBAT ARTEMISININ RESISTANCE IN MALARIA” (Institute of Life Sciences, priority 2022, published 2025).
Like-named read-outs stand apart in the source and are kept apart here.

Legend:
[1] = target: T1, rPfGS (Plasmodium falciparum glutamine synthetase) (Plasmodium falciparum, UniProt C0H551); test: Recombinant PfGS enzyme assay (HPLC glutamine formation / Pi release) and inhibition; assay type: biochemical
T1 sequence (C0H551 1-543): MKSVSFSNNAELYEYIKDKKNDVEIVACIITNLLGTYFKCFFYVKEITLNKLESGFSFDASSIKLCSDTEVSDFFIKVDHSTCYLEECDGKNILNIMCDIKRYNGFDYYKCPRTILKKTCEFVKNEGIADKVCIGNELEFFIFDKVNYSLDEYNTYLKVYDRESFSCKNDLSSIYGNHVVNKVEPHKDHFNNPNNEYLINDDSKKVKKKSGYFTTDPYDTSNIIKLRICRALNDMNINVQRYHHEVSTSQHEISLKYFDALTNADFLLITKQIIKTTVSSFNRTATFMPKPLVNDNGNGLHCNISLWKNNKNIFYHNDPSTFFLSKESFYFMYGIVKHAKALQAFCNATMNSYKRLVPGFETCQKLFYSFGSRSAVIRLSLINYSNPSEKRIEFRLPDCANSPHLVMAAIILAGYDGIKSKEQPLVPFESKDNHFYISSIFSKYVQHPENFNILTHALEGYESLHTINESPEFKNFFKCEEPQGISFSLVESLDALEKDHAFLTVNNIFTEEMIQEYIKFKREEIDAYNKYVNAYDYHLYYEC
Procedure: (§1) Enzyme assays were carried out by performing HPLC analysis for glutamine formation as well as by quantifying the release of inorganic phosphate (Pi). The enzyme assays were carried out at 37° C. for 1 h in a total volume of 25 µl and the assay mixtures contained 50 mM Tris buffer pH 8.0 with 4 mM glutamate, 50 mM NaCl, 50 mM NH4Cl, 10 mM ATP and 50 mM MgCl2 and 0.5-1.0 μg of recombinant protein. The amino acids were extracted by vortexing the assay mixtures with 50 μl of water and 375 μl of acetonitrile, followed by incubation in ice for 30 min and centrifugation at 20,000 g for 20 min at 4° C. The supernatant was collected, lyophilized and dissolved in 50 μl of water. […] Mobile phase consisted of Solvent A: 10 mM Na2HPO4, and 10 mM Na2B4O7, pH 8.2 and solvent B: methanol: acetonitrile: water (45:45:10 v/v). […] For every molecule of glutamine formed, one molecule of ATP is hydrolysed to ADP and Pi. […] For Pi assays, the assay mixtures incubated at 37° C. for 1 h were diluted with water to 200 μl, followed by the addition of 30 μl of phosphate reagent of Phosphate Assay Kit (Abcam, ab65622). After vortexing, the absorbance was measured at 650 nm as per the manufacturer's protocol. Individual glutamate-and protein-omitted reactions were used as controls for all the assays.

[2] = tested on: Pf asexual stages (Pf3D7 cultures); test: MSO and PPT inhibition of in vitro growth of Pf cultures; assay type: cell-based, Plasmodium falciparum; conditions: for IC50: Plasmodium falciparum, read-out: IC50 for inhibiting Pf growth
Procedure: The parasites were subcultured with fresh RBCs when the culture parasitemia reached around 2-5%. […] The isolated parasites were washed thoroughly with ice cold PBS for four times to remove the carry-over of proteins from RBC lysates. ART-resistant PfCam3.I^R539T strain was also maintained in a similar fashion. Giemsa-stained smears were routinely prepared to examine the parasite growth and parasitemia. Parasite growth assessment for experiments was carried out by Giemsa-stained smears, flow cytometry and ^3H-hypoxanthine uptake. […] The radioactive counts were measured using MicroBeta^2 Microplate Counters (PerkinElmer).

[3] = tested on: Pf protein synthesis; test: In vitro metabolic protein labelling with 35S-Methionine and Cysteine; assay type: cell-based; conditions: Plasmodium falciparum, 12 h treatment; for inhibition at 50 µM / inhibition at 250 µM: RPMI^-gln medium; for inhibition at 1000 µM: 1 mM, RPMI^Pgln medium
Procedure: After 9 h of radiolabelling, parasites were isolated by saponin lysis, resuspended in 50 mM Tris pH 8.0 containing 100 mM NaCl, 2% glycerol and 0.1% Triton X-100, and lysed by sonication. The lysates were resolved on 10% SDS-PAGE gel and phosphorimager scanning was carried out to examine the radiolabelling of proteins using Amersham Typhoon 5 Biomolecular Imager. In parallel, 10 μl of the lysates were spotted on Whatman filter paper grade I, dried and washed subsequently with hot and cold 10% (w/v) trichloroacetic acid to remove free amino acids and charged-tRNAs, followed by diethyl ether to remove lipids. The filter papers were then placed in Ultima Gold XR scintillation cocktail and the radioactive counts were measured using MicroBeta^2 Microplate Counters. All these experiments were performed with identical parasitemia and hematocrit between the untreated and treated groups by equally splitting the infected cultures.

[4] = tested on: Pf clinical isolates; test: Inhibition studies with Pf clinical samples (3H-hypoxanthine uptake); assay type: cell-based, Plasmodium falciparum; conditions: in vitro cultures without or with glutamine; n=7 clinical isolates
Procedure: The collection of clinical samples was carried out by withdrawing blood from febrile patients. Pf infections were confirmed by examining Giemsa-stained thick and thin blood smears under light microscope, and by performing rapid diagnostic test and PCR for 18S rRNA. The infected blood was collected in heparinized vacutainers and the subsequent procedures were carried out in BSL-2 facility under sterile conditions. […] The packed cells were then resuspended in the same medium and the hematocrit was adjusted to 5%. The cultures were treated with different concentrations of MSO/PPT and ^3H-hypoxanthine addition was carried out after 3 h of MSO/PPT addition to assess the parasite growth. The cultures were incubated following the standard conditions of Pf maintenance and the experiments were performed for each clinical isolate in RPMI^-gln as well as in RPMI^Pgln. All these experiments were typically carried out in a final culture volume of 1.2 ml for the respective concentrations of MSO or PPT. Parasite growth assessment was also verified by examining the Giemsa-stained smears.

[5] = tested on: Pf parasites; conditions: RPMI^-gln medium; 50 and 250 μM MSO, 12 h
Procedure: Parasite pellets were then extracted with 10 volumes of 50% methanol in water (v/v), followed by lyophilisation and solubilizing the lyophilized extracts with 50 μl of water. […] For LC-MS/MS, the parasite extracts were derivatized with 6-aminoquinolyl-N-hydroxysuccinimidyl carbamate (AQC), cleaned up with SPE and dried under vacuum, followed by reconstitution with 50 μl of 0.5% acetonitrile containing 0.1% formic acid. 10 μl of the sample was used for LC-MS/MS analysis carried out in Acquity C18 column (1.8 μm, 2.1 mm×100 mm) using Dionnex Ultimate3000 UHPLC system coupled with Q Exactive mass spectrometer (Thermo Fisher Scientific). Mobile phase consisted of Solvent A: 10 mM ammonium acetate containing 0.1% formic acid and solvent B: acetonitrile containing 0.1% formic acid. Mass spectrometry was performed under spray voltage of 4000/2500V with vaporizer temperature of 250° C., sheath gas and auxillary gas flow rate of 30 and 10 Arb, respectively. The acquisition was performed in Parallel Reaction Monitoring mode at 35000 resolution with a normalized collision energy of 25 eV. The calibration curves were prepared for the individual amino acids and the samples were spiked with internal standards containing deuterated amino acids.

[6] = tested on: eIF2α phosphorylation in Pf3D7 rings; conditions: 250 μM for 6 h, RPMI^-gln medium
Procedure: Pf3D7 cultures were subjected to two rounds of tight synchronization within a span of 3 h in the previous cycle, followed by one additional synchronization in the subsequent cycle immediately after RBC invasion.

[7] = tested on: ART-resistant PfCam3.I^R539T strain; test: Ring-stage survival assay (RSA) with ART-resistant strain; assay type: cell-based, Plasmodium falciparum
Procedure: PfCam3.I^R539T strain was maintained under standard conditions. When the parasitemia reached around 2% with predominant ring stages, the cultures were subjected to two rounds of tight synchronization within a span of 3 h in the previous cycle, followed by one additional synchronization in the subsequent cycle when they are in early rings. […] The medium change was carried out at 48 and 72 h, and after 96 h, the culture parasitemia was examined by Giemsa-stained smears and flow cytometry. For growth assessment by ^3H-hypoxanthine uptake, the label was added at 72 h and the cells were harvested at 96 h. The experiments were carried out independently in RPMI^-gln and RPMI^Pgln medium.

[8] = substrate: N; test: Recombinant PfGS enzyme assay (HPLC glutamine formation / Pi release) and inhibition; assay type: biochemical, Plasmodium falciparum; conditions: other: Lineweaver-Burk plots; mean±SD, at least three different protein preparations
Procedure: as §1

[9] = substrate: N[C@@H](CCC(=O)O)C(=O)O; test: as above; assay type: biochemical, Plasmodium falciparum; conditions: other: Lineweaver-Burk plots; mean±SD, at least three different protein preparations
Procedure: as §1

[10] = substrate: Nc1ncnc2c1ncn2[C@@H]1O[C@H](COP(=O)(O)OP(=O)(O)OP(=O)(O)O)[C@@H](O)[C@H]1O; test: as above; assay type: biochemical, Plasmodium falciparum; conditions: other: Lineweaver-Burk plots; mean±SD, at least three different protein preparations
Procedure: as §1

CP(=O)(O)CCC(N)C(=O)O (centres unmarked) [PPT, Phosphinothricin]
Ki [1]: 2.31 ± 1.1 µM | IC50 ([2]; RPMI medium lacking glutamine (RPMI^-gln)): ~30 µM | IC50 in RPMI^Pgln relative to IC50 in RPMI^-gln ([2]; RPMI medium containing physiological levels (0.5 mM) of glutamine (RPMI^Pgln)): ~10 times higher | inhibition at 50 µM [3]: 40 to 50% | inhibition at 250 µM [3]: ~80% | inhibition at 1000 µM [3]: ~50% | growth of Pf clinical samples [4]: could inhibit the growth of Pf clinical samples to the extent that was observed for Pf3D7 strain

CS(=N)(=O)CC[C@H](N)C(=O)O (stereo partly drawn) [MSO, L-methionine sulfoximine]
IC50 [2]: ~30 µM | inhibition at 50 µM [3]: 40 to 50% | inhibition at 250 µM [3]: ~80% | inhibition at 1000 µM [3]: ~50% | free glutamine levels in treated Pf parasites with respect to untreated parasites [5]: did not show a significant decrease | reduction of free asparagine levels with respect to untreated control [5]: 1.5-2.0 fold | phosphorylation of eIF2α in Pf [6]: prominent phosphorylation | growth of Pf clinical samples [4]: could inhibit the growth of Pf clinical samples to the extent that was observed for Pf3D7 strain | inhibition with respect to the untreated control ([7]; MSO alone for 6 h, PfCam3.I^R539T rings): 10-20%

C[C@@H]1CC[C@H]2[C@@H](C)C(=O)O[C@@H]3O[C@@]4(C)CC[C@@H]1[C@]32OO4 [ART, artemisinin]
viable parasites after exposure in RSA ([7]; 700 nM exposure for 6 h, PfCam3.I^R539T cultures, after 72 h): resulted in viable parasites

B1: rPfGS (Plasmodium falciparum glutamine synthetase) (Plasmodium falciparum 3D7) (protein)
chain: T1 sequence (C0H551 1-543)
Km [8]: 530 ± 180 µM | Km [9]: 730 ± 210 µM | Km [10]: 750 ± 140 µM
